From patent US20100233158A1, “INDUCTION OF IMMUNE TOLERANCE” (Genzyme Corporation, priority 2002, published 2010)

System: cardiac allograft rejection
Experiment: Heart transplant rejection mouse model (C57/BL6 heart into Balb/c recipient, total MHC mismatch)
Format: in vivo, mice
Settings: Compound 1 alone, 75 mg/kg/day for fourteen days following surgery; untreated controls rejected after ten days; p<0.001
Description: The ability of a combination therapy of rapamycin and Compound 1 to inhibit transplant rejection in a mouse model was tested. […] Following surgery, the mice were divided into the following treatment groups: • Group I is a control group that was untreated. • Group II was treated with Compound 1 at a dose of 75 mg/kg/day subcutaneously for fourteen days following surgery. • Group III was treated with rapamycin at a dose of 0.3 mg/kg/day intraperitoneally for three days following surgery. • Group IV was treated with Compound 1 at a dose of 75 mg/kg/day intraperitoneally for fourteen days following surgery and with rapamycin at a dose of 0.3 mg/kg/day intraperitoneally for three days following surgery.

In the case of `N#Cc1cccc(C(C(=O)NCC(c2ccccc2)c2ccccc2)N(CCc2c[nH]cn2)C(=O)c2ccccc2C(=O)c2ccccc2)c1` (stereo not shown) [Compound 1], the “delay in the onset of rejection” value is reported as “two to three”.
